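Cultured in 96-well plates, cells were exposed to test compound for 48 hours across five concentrations. The concentration for full growth arrest is given as TGI.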 Where a SMILES comes first, the peptide text is derived from it. [ ]: non-standard residue; d: D form. The star is where a group is joined. Cbz = O=C(OCc1ccccc1)*; Aib = CC(C)(N)C(=O)O
Experiments:
Assay in all cases: DTP human tumour cell line panel, 48 h
OVCAR-5 ovarian = tested on: OVCAR-5 ovarian
HCT-15 colon = tested on: HCT-15 colon
SF-268 CNS = tested on: SF-268 CNS
OVCAR-8 ovarian = tested on: OVCAR-8 ovarian
CCRF-CEM leukemia = tested on: CCRF-CEM leukemia
NCI/ADR-RES ovarian = tested on: NCI/ADR-RES ovarian
UACC-257 melanoma = tested on: UACC-257 melanoma
MDA-MB-231 breast = tested on: MDA-MB-231 breast
LOX IMVI melanoma = tested on: LOX IMVI melanoma
HCT-116 colon = tested on: HCT-116 colon
MDA-N = tested on: MDA-N
SW-620 colon = tested on: SW-620 colon
A498 renal = tested on: A498 renal
HCC-2998 colon = tested on: HCC-2998 colon
T-47D breast = tested on: T-47D breast
IGROV1 ovarian = tested on: IGROV1 ovarian
U251 CNS = tested on: U251 CNS
HS 578T breast = tested on: HS 578T breast
KM12 colon = tested on: KM12 colon
MCF7 breast = tested on: MCF7 breast
SK-MEL-5 melanoma = tested on: SK-MEL-5 melanoma
HOP-62 NSCLC = tested on: HOP-62 NSCLC
UO-31 renal = tested on: UO-31 renal
EKVX NSCLC = tested on: EKVX NSCLC
SR leukemia = tested on: SR leukemia
DU-145 prostate = tested on: DU-145 prostate
786-0 renal = tested on: 786-0 renal
OVCAR-3 ovarian = tested on: OVCAR-3 ovarian
MDA-MB-435 = tested on: MDA-MB-435
OVCAR-4 ovarian = tested on: OVCAR-4 ovarian
TK-10 renal = tested on: TK-10 renal
SK-MEL-2 melanoma = tested on: SK-MEL-2 melanoma
K-562 leukemia = tested on: K-562 leukemia
SN12C renal = tested on: SN12C renal
SK-OV-3 ovarian = tested on: SK-OV-3 ovarian
A549 NSCLC = tested on: A549 NSCLC
NCI-H226 lung = tested on: NCI-H226 lung
SF-539 CNS = tested on: SF-539 CNS
MOLT-4 leukemia = tested on: MOLT-4 leukemia
RPMI-8226 leukemia = tested on: RPMI-8226 leukemia
SNB-75 CNS = tested on: SNB-75 CNS
M14 melanoma = tested on: M14 melanoma
MALME-3M melanoma = tested on: MALME-3M melanoma
SNB-19 CNS = tested on: SNB-19 CNS
NCI-H23 lung = tested on: NCI-H23 lung
ACHN renal = tested on: ACHN renal
PC-3 prostate = tested on: PC-3 prostate
HOP-92 NSCLC = tested on: HOP-92 NSCLC
NCI-H522 lung = tested on: NCI-H522 lung
SK-MEL-28 melanoma = tested on: SK-MEL-28 melanoma
CAKI-1 renal = tested on: CAKI-1 renal
SF-295 CNS = tested on: SF-295 CNS
HT29 colon = tested on: HT29 colon
UACC-62 melanoma = tested on: UACC-62 melanoma
NCI-H460 lung = tested on: NCI-H460 lung
COLO 205 colon = tested on: COLO 205 colon
BT-549 breast = tested on: BT-549 breast
HL-60(TB) leukemia = tested on: HL-60(TB) leukemia
RXF 393 renal = tested on: RXF 393 renal

CC(C)(NC(=O)C(C)(C)NC(=O)OCc1ccccc1)C(=O)O (Cbz-[Aib]-[Aib]-OH)
TGI (OVCAR-5 ovarian): > 100 µM
TGI (HCT-15 colon): > 100 µM
TGI (SF-268 CNS): > 100 µM
TGI (OVCAR-8 ovarian): > 100 µM
TGI (CCRF-CEM leukemia): > 100 µM
TGI (NCI/ADR-RES ovarian): > 100 µM
TGI (UACC-257 melanoma): > 100 µM
TGI (MDA-MB-231 breast): > 100 µM
TGI (LOX IMVI melanoma): > 100 µM
TGI (HCT-116 colon): > 100 µM
TGI (MDA-N): > 100 µM
TGI (SW-620 colon): > 100 µM
TGI (A498 renal): > 100 µM
TGI (HCC-2998 colon): > 100 µM
TGI (T-47D breast): > 100 µM
TGI (IGROV1 ovarian): > 100 µM
TGI (U251 CNS): > 100 µM
TGI (HS 578T breast): > 100 µM
TGI (KM12 colon): > 100 µM
TGI (MCF7 breast): > 100 µM
TGI (SK-MEL-5 melanoma): > 100 µM
TGI (HOP-62 NSCLC): > 100 µM
TGI (UO-31 renal): > 100 µM
TGI (EKVX NSCLC): > 100 µM
TGI (SR leukemia): > 100 µM
TGI (DU-145 prostate): > 100 µM
TGI (786-0 renal): > 100 µM
TGI (OVCAR-3 ovarian): > 100 µM
TGI (MDA-MB-435): > 100 µM
TGI (OVCAR-4 ovarian): > 100 µM
TGI (TK-10 renal): > 100 µM
TGI (SK-MEL-2 melanoma): > 100 µM
TGI (K-562 leukemia): > 100 µM
TGI (SN12C renal): > 100 µM
TGI (SK-OV-3 ovarian): > 100 µM
TGI (A549 NSCLC): > 100 µM
TGI (NCI-H226 lung): > 100 µM
TGI (SF-539 CNS): > 100 µM
TGI (MOLT-4 leukemia): > 100 µM
TGI (RPMI-8226 leukemia): > 100 µM
TGI (SNB-75 CNS): > 100 µM
TGI (M14 melanoma): > 100 µM
TGI (MALME-3M melanoma): > 100 µM
TGI (SNB-19 CNS): > 100 µM
TGI (NCI-H23 lung): > 100 µM
TGI (ACHN renal): > 100 µM
TGI (PC-3 prostate): > 100 µM
TGI (HOP-92 NSCLC): > 100 µM
TGI (NCI-H522 lung): > 100 µM
TGI (SK-MEL-28 melanoma): > 100 µM
TGI (CAKI-1 renal): > 100 µM
TGI (SF-295 CNS): > 100 µM
TGI (HT29 colon): > 100 µM
TGI (UACC-62 melanoma): > 100 µM
TGI (NCI-H460 lung): > 100 µM

COc1ccc(C2=Nc3c(nc(SC)[nH]c3=O)NC(c3ccccc3)C2)cc1 (centres undefined)
TGI (OVCAR-5 ovarian): > 100 µM
TGI (COLO 205 colon): 34.8 µM
TGI (OVCAR-8 ovarian): 40.7 µM
TGI (CCRF-CEM leukemia): 98.6 µM
TGI (NCI/ADR-RES ovarian): 77.3 µM
TGI (BT-549 breast): 66.1 µM
TGI (UACC-257 melanoma): 57.4 µM
TGI (MDA-MB-231 breast): 30 µM
TGI (LOX IMVI melanoma): > 100 µM
TGI (HCT-116 colon): > 100 µM
TGI (MDA-N): 35.4 µM
TGI (SW-620 colon): > 100 µM
TGI (A498 renal): > 100 µM
TGI (IGROV1 ovarian): 55.6 µM
TGI (U251 CNS): 36.4 µM
TGI (KM12 colon): 30.2 µM
TGI (MCF7 breast): 41.8 µM
TGI (SK-MEL-5 melanoma): 30.1 µM
TGI (HOP-62 NSCLC): > 100 µM
TGI (UO-31 renal): 56.3 µM
TGI (EKVX NSCLC): 67.8 µM
TGI (SR leukemia): > 100 µM
TGI (HL-60(TB) leukemia): 42.5 µM
TGI (DU-145 prostate): 82.7 µM
TGI (786-0 renal): > 100 µM
TGI (OVCAR-3 ovarian): > 100 µM
TGI (MDA-MB-435): > 100 µM
TGI (SK-MEL-2 melanoma): 94.4 µM
TGI (RXF 393 renal): 39 µM
TGI (K-562 leukemia): 66 µM
TGI (SN12C renal): 47.2 µM
TGI (SK-OV-3 ovarian): 51.9 µM
TGI (A549 NSCLC): 66.5 µM
TGI (NCI-H226 lung): 65.2 µM
TGI (SF-539 CNS): 37.3 µM
TGI (MOLT-4 leukemia): 57.1 µM
TGI (RPMI-8226 leukemia): 62 µM
TGI (SNB-75 CNS): 48.8 µM
TGI (M14 melanoma): 66 µM
TGI (MALME-3M melanoma): > 100 µM
TGI (SNB-19 CNS): 65.4 µM
TGI (NCI-H23 lung): 45.6 µM
TGI (ACHN renal): 56.7 µM
TGI (PC-3 prostate): > 100 µM
TGI (HOP-92 NSCLC): > 100 µM
TGI (NCI-H522 lung): 35.7 µM
TGI (CAKI-1 renal): 31 µM
TGI (SF-295 CNS): 60.4 µM
TGI (HT29 colon): 49.8 µM

— PubChem BioAssay (NCI)
